Values of other authors, collected in PubChem BioAssay AID1259409 (Chemical Carcinogenesis Research Information System (CCRIS), 2018).

Tested on: rodent chemically induced tumor inhibition, incidence and multiplicity
Experiment: CCRIS tumor inhibitor studies

## Oc1cccc(O)c1
Carcinogen: 3,2'-DIMETHYL-4-AMINOBIPHENYL, 13394-86-0, Dose [Inhibitor]: 0, 0.8% IN BASAL DIET BEGINNING POST CARCINOGEN TREATMENT AND CONTINUING FOR 40 WK (STUDY DURATION: 60 WK), Route [Inhibitor]: ORAL, Species: RAT, Strain/Sex: F344/MALE, Target Tissue: Type of Lesion: LARGE INTESTINE: ADENOMA AND ADENOCARCINOMA, Dose [Carcinogen]: 50 MG/KG 1/2 WK FOR 20 WK TO RATS MAINTAINED ON ETHINYL ESTRADIOL CONTAINING DIET (0.75 PPM) FOR 1 WK CYCLED WITH ETHINY, Promoter: ETHINYL ESTRADIOL, 57-63-6
  tumour outcome (control, treated, inhibition, significance): 3/10 (30%), 6/10 (60%), -100%, not significant
Carcinogen: 3,2'-DIMETHYL-4-AMINOBIPHENYL, 13394-86-0, Dose [Inhibitor]: 0, 0.8% IN BASAL DIET BEGINNING POST CARCINOGEN TREATMENT AND CONTINUING FOR 40 WK (STUDY DURATION: 60 WK), Route [Inhibitor]: ORAL, Species: RAT, Strain/Sex: F344/MALE, Target Tissue: Type of Lesion: PANCREAS: ACINAR CELL NODULE, Dose [Carcinogen]: 50 MG/KG 1/2 WK FOR 20 WK TO RATS MAINTAINED ON ETHINYL ESTRADIOL CONTAINING DIET (0.75 PPM) FOR 1 WK CYCLED WITH ETHINY, Promoter: ETHINYL ESTRADIOL, 57-63-6
  tumour outcome (control, treated, inhibition, significance): 4/10 (40%), 3/10 (30%), 25%, not significant
Carcinogen: 3,2'-DIMETHYL-4-AMINOBIPHENYL, 13394-86-0, Dose [Inhibitor]: 0, 0.8% IN BASAL DIET BEGINNING POST CARCINOGEN TREATMENT AND CONTINUING FOR 40 WK (STUDY DURATION: 60 WK), Route [Inhibitor]: ORAL, Species: RAT, Strain/Sex: F344/MALE, Target Tissue: Type of Lesion: PREPUTIAL GLAND: ADENOMA AND CARCINOMA, Dose [Carcinogen]: 50 MG/KG 1/2 WK FOR 20 WK TO RATS MAINTAINED ON ETHINYL ESTRADIOL CONTAINING DIET (0.75 PPM) FOR 1 WK CYCLED WITH ETHINY, Promoter: ETHINYL ESTRADIOL, 57-63-6
  tumour outcome (control, treated, inhibition, significance): 5/10 (50%), 3/10 (30%), 40%, not significant
Carcinogen: 3,2'-DIMETHYL-4-AMINOBIPHENYL, 13394-86-0, Dose [Inhibitor]: 0, 0.8% IN BASAL DIET BEGINNING POST CARCINOGEN TREATMENT AND CONTINUING FOR 40 WK (STUDY DURATION: 60 WK), Route [Inhibitor]: ORAL, Species: RAT, Strain/Sex: F344/MALE, Target Tissue: Type of Lesion: PROSTATE: CARCINOMA, Dose [Carcinogen]: 50 MG/KG 1/2 WK FOR 20 WK TO RATS MAINTAINED ON ETHINYL ESTRADIOL CONTAINING DIET (0.75 PPM) FOR 1 WK CYCLED WITH ETHINY, Promoter: ETHINYL ESTRADIOL, 57-63-6
  tumour outcome (control, treated, inhibition, significance): 5/10 (50%), 3/10 (30%), 40%, not significant
Carcinogen: 3,2'-DIMETHYL-4-AMINOBIPHENYL, 13394-86-0, Dose [Inhibitor]: 0, 0.8% IN BASAL DIET BEGINNING POST CARCINOGEN TREATMENT AND CONTINUING FOR 40 WK (STUDY DURATION: 60 WK), Route [Inhibitor]: ORAL, Species: RAT, Strain/Sex: F344/MALE, Target Tissue: Type of Lesion: SMALL INTESTINE: ADENOMA AND ADENOCARCINOMA, Dose [Carcinogen]: 50 MG/KG 1/2 WK FOR 20 WK TO RATS MAINTAINED ON ETHINYL ESTRADIOL CONTAINING DIET (0.75 PPM) FOR 1 WK CYCLED WITH ETHINY, Promoter: ETHINYL ESTRADIOL, 57-63-6
  tumour outcome (control, treated, inhibition, significance): 2/10 (20%), 2/10 (20%), 0%, not significant
Carcinogen: 3,2'-DIMETHYL-4-AMINOBIPHENYL, 13394-86-0, Dose [Inhibitor]: 0, 0.8% IN BASAL DIET BEGINNING POST CARCINOGEN TREATMENT AND CONTINUING FOR 40 WK (STUDY DURATION: 60 WK), Route [Inhibitor]: ORAL, Species: RAT, Strain/Sex: F344/MALE, Target Tissue: Type of Lesion: SUBCUTIS: TUMOR, Dose [Carcinogen]: 50 MG/KG 1/2 WK FOR 20 WK TO RATS MAINTAINED ON ETHINYL ESTRADIOL CONTAINING DIET (0.75 PPM) FOR 1 WK CYCLED WITH ETHINY, Promoter: ETHINYL ESTRADIOL, 57-63-6
  tumour outcome (control, treated, inhibition, significance): 1/10 (10%), 1/10 (10%), 0%, not significant
Carcinogen: 3,2'-DIMETHYL-4-AMINOBIPHENYL, 13394-86-0, Dose [Inhibitor]: 0, 0.8% IN BASAL DIET BEGINNING POST CARCINOGEN TREATMENT AND CONTINUING FOR 40 WK (STUDY DURATION: 60 WK), Route [Inhibitor]: ORAL, Species: RAT, Strain/Sex: F344/MALE, Target Tissue: Type of Lesion: ZYMBAL GLAND: ADENOMA OR CARCINOMA, Dose [Carcinogen]: 50 MG/KG 1/2 WK FOR 20 WK TO RATS MAINTAINED ON ETHINYL ESTRADIOL CONTAINING DIET (0.75 PPM) FOR 1 WK CYCLED WITH ETHINY, Promoter: ETHINYL ESTRADIOL, 57-63-6
  tumour outcome (control, treated, inhibition, significance): 2/10 (20%), 2/10 (20%), 0%, not significant
Carcinogen: BENZO[A]PYRENE, 50-32-8, Dose [Inhibitor]: 10 MG IN 0.1 ML ACETONE 3/WK ADMINISTERED SIMULTANEOUSLY WITH CARCINOGEN FOR DU RATION OF STUDY (STUDY DURATION: 368 D), Route [Inhibitor]: DERMAL, Species: MOUSE, Strain/Sex: ICR/FEMALE, Target Tissue: Type of Lesion: SKIN: PAPILLOMA, Dose [Carcinogen]: 5 UG IN 0.1 ML ACETONE THAT ALSO CONTAINED AGENT 3/WK FOR DURATION OF STUDY, Promoter: NONE USED
  tumour outcome (control, treated, inhibition, significance): 14/50 (28%), 5/50 (10%), 64%, not calculated
Carcinogen: BENZO[A]PYRENE, 50-32-8, Dose [Inhibitor]: 10 MG IN 0.1 ML ACETONE 3/WK ADMINISTERED SIMULTANEOUSLY WITH CARCINOGEN FOR DU RATION OF STUDY (STUDY DURATION: 368 D), Route [Inhibitor]: DERMAL, Species: MOUSE, Strain/Sex: ICR/FEMALE, Target Tissue: Type of Lesion: SKIN: SQUAMOUS CARCINOMA, Dose [Carcinogen]: 5 UG IN 0.1 ML ACETONE THAT ALSO CONTAINED AGENT 3/WK FOR DURATION OF STUDY, Promoter: NONE USED
  tumour outcome (control, treated, inhibition, significance): 10/50 (20%), 2/50 (4%), 80%, not calculated
Carcinogen: N-BIS(2-HYDROXYPROPYL)NITROSAMINE, 53609-64-6, Dose [Inhibitor]: 0, 0.8% IN DIET FOR 30 WK BEGINNING POST CARCINOGEN (STUDY DURATION: 32 WK), Route [Inhibitor]: ORAL, Species: RAT, Strain/Sex: F344/MALE, Target Tissue: Type of Lesion: LUNG: CARCINOMA, Dose [Carcinogen]: 0.1% IN DRINKING WATER FOR 2 WK, Promoter: NONE USED
  tumour outcome (control, treated, inhibition, significance): 45%, 40%, 11%, not calculated
Carcinogen: N-BIS(2-HYDROXYPROPYL)NITROSAMINE, 53609-64-6, Dose [Inhibitor]: 0, 0.8% IN DIET FOR 30 WK BEGINNING POST CARCINOGEN TREATMENT (STUDY DURATION: 32 WK), Route [Inhibitor]: ORAL, Species: RAT, Strain/Sex: F344/MALE, Target Tissue: Type of Lesion: BLADDER: ADENOMA, Dose [Carcinogen]: 0.1% IN DRINKING WATER FOR 2 WK, Promoter: NONE USED
  tumour outcome (control, treated, inhibition, significance): 5%, 10%, -100%, not calculated
Carcinogen: N-BIS(2-HYDROXYPROPYL)NITROSAMINE, 53609-64-6, Dose [Inhibitor]: 0, 0.8% IN DIET FOR 30 WK BEGINNING POST CARCINOGEN TREATMENT (STUDY DURATION: 32 WK), Route [Inhibitor]: ORAL, Species: RAT, Strain/Sex: F344/MALE, Target Tissue: Type of Lesion: KIDNEY: TUMOR, Dose [Carcinogen]: 0.1% IN DRINKING WATER FOR 2 WK, Promoter: NONE USED
  tumour outcome (control, treated, inhibition, significance): 10%, 35%, -250%, not calculated
